Measured values as given in patent US20040152784A1, “Pharmaceutical composition and method for treatment of a urea cycle deficiency or sickle-cell anaemia” (Special Products Limited, priority 2002, published 2004).
≈ marks a conversion by molar mass, not a printed value. Entries after “also recorded” stand apart in the source; their conditions may differ. Where two headings read alike, the source gives them in different places. Blank lines part the entries; values can stand above or below the molecule they belong to. Residues, ends and D or L forms follow the SMILES beside them.

How the values were obtained:
[1] = cited from earlier work
[2] = Bulk density and powder properties; format: physicochemical
Method: A pharmaceutical composition made by either of such methods typically has a bulk density of about 52.6 g/100 ml. […] A 25 g quantity of the granulated pharmaceutical composition will thus approximately half fill a 100 ml bottle.

[3] = system: bacterial and fungal growth; test: Prevention of bacterial and fungal growth in the concentrated flavored solution without preservative; format: cell-based; conditions: 250 mg/ml, no preservative
From the text: This may not apply at much lower concentrations. Therefore, the concentrated solution should be diluted by the patient's carer or guardian immediately before it is consumed by the patient. Thus the patient's carer or guardian should not prepare a jug of ready-to-use liquid to last a week or so.

Solubility in water = format: physicochemical; conditions: in water at 10° C.; read-out: maximum solubility of sodium 4-phenylbutyrate
[4] = cited from earlier work; for Stability / hydrolysis in water: in words

Compound: O=S(=O)([O-])NC1CCCCC1.[Na+] [Sodium cyclamate]
- Solubility in Water ([1]; in words): Soluble

Compound: O=C1NS(=O)(=O)c2ccccc21.[Na] [Sodium Saccharine]
- Solubility in Water ([1]; in words): Very soluble

- bulk density [2]: about 26.4 g/100 ml
- hygroscopicity [2]: somewhat hygroscopic
- solubility (Solubility in water): 250 mg/mL
Compound: O=C([O-])CCCc1ccccc1.[Na+] [Sodium 4-phenylbutyrate]
- prevention of bacterial and fungal growth [3]: prevents such growth

Compound: COC(=O)[C@H](Cc1ccccc1)NC(=O)[C@@H](N)CC(=O)O [Aspartame] (H-Asp-Phe-OMe)
- solubility [1]: 10 mg/mL (≈ 34 mM)
- hydrolyses significantly to phenylalanine (non-sweet) within ([4]; in water): ≤ 6 months
- Stability / hydrolysis in water [4]: hydrolyses to phenylalanine within a few weeks; also recorded: Hydrolyses in water

Compound: CC1=CC(=O)NS(=O)(=O)O1 [Potassium acesulfame]
- Dissolution ([1]; in words): Fast dissolution
- Solubility in Water ([1]; in words): Very soluble
- Stability / hydrolysis in water [4]: Stable in water

Compound: OC[C@@H](O)[C@@H](O[C@H]1O[C@H](CO)[C@@H](O)[C@H](O)[C@H]1O)[C@H](O)[C@@H](O)CO [Maltitol]
- Solubility in Water ([1]; in words): Very soluble
